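96-well plates; 48 h exposure; 5 concentrations. Endpoints by linear interpolation between flanking doses. Not reached: highest tested concentration assigned. Definition used: TGI = concentration required for complete inhibition of growth.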
These compounds were tested on SF-268 CNS (assay: NCI anticancer screen, dose series, 48 h).
Work on `CCCCCCCCCCCCCCCCOCC(O)CO` (stereo not drawn) yielded a TGI of 36 µM.

The compounds below were run on UACC-62 melanoma (assay: NCI anticancer screen, dose series, 48 h).
Compound `CCOC(=O)C1=C(C)N(Cc2ccccc2)C2(O)C=CC(=O)C3=C(O)c4ccccc4C(=O)C312` (stereo not drawn) has a TGI of 31.1 µM. Compound `COc1cc(-c2cc(=O)c3c(O)c(OC)c(OC)c(OC)c3o2)cc(OC)c1OC` has a TGI greater than 100 µM. `COc1cc(/C=N/NC2=NCCN2)ccc1O` gave a TGI greater than 100 µM. `O=C(NCCCCCN1CCC2(CCCCC2)CC1)C(C1CCCCC1)C1CCCCC1` was tested, and the TGI was 7.2 µM. For `C/C(=N\NC(N)=S)c1ccc(C2CCCCC2)cc1`, the TGI was 32.2 µM. `CC[C@@]1(O)C(=O)OCc2c1cc1n(c2=O)Cc2c-1nc1ccccc1c2/C=N\NC(=O)C(N)Cc1c[nH]c2ccccc12` (stereo partly drawn) showed a TGI of 0.712 µM. For `CCCCCCCCCCCCCCCCOCC(O)CO` (stereo not drawn), the TGI was 35.2 µM.

What follows are compounds tested on OVCAR-4 ovarian (assay: NCI anticancer screen, dose series, 48 h).
Compound `CCOC(=O)C1=C(C)N(Cc2ccccc2)C2(O)C=CC(=O)C3=C(O)c4ccccc4C(=O)C312` (stereo not drawn) has a TGI of 38.7 µM. Compound `COc1cc(-c2cc(=O)c3c(O)c(OC)c(OC)c(OC)c3o2)cc(OC)c1OC` has a TGI greater than 100 µM. Compound `COc1cc(/C=N/NC2=NCCN2)ccc1O` has a TGI greater than 100 µM. Compound `O=C(NCCCCCN1CCC2(CCCCC2)CC1)C(C1CCCCC1)C1CCCCC1` has a TGI of 14.5 µM. With `C/C(=N\NC(N)=S)c1ccc(C2CCCCC2)cc1` the TGI was 38.4 µM. Work on `CC[C@@]1(O)C(=O)OCc2c1cc1n(c2=O)Cc2c-1nc1ccccc1c2/C=N\NC(=O)C(N)Cc1c[nH]c2ccccc12` (stereo partly drawn) yielded a TGI greater than 100 µM. `CCCCCCCCCCCCCCCCOCC(O)CO` (stereo not drawn) showed a TGI of 46.1 µM.

Each compound was assayed on 786-0 renal (assay: NCI anticancer screen, dose series, 48 h).
`CCOC(=O)C1=C(C)N(Cc2ccccc2)C2(O)C=CC(=O)C3=C(O)c4ccccc4C(=O)C312` (stereo not drawn) showed a TGI of 26.2 µM. In the case of `COc1cc(-c2cc(=O)c3c(O)c(OC)c(OC)c(OC)c3o2)cc(OC)c1OC`, the TGI is reported as 15.6 µM. Compound `COc1cc(/C=N/NC2=NCCN2)ccc1O` has a TGI greater than 100 µM. Work on `O=C(NCCCCCN1CCC2(CCCCC2)CC1)C(C1CCCCC1)C1CCCCC1` yielded a TGI of 9.65 µM. In the case of `C/C(=N\NC(N)=S)c1ccc(C2CCCCC2)cc1`, the TGI is reported as 31.7 µM. In the case of `CC[C@@]1(O)C(=O)OCc2c1cc1n(c2=O)Cc2c-1nc1ccccc1c2/C=N\NC(=O)C(N)Cc1c[nH]c2ccccc12` (stereo partly drawn), the TGI is reported as greater than 21.7 µM. `CCCCCCCCCCCCCCCCOCC(O)CO` (stereo not drawn) gave a TGI of 32.8 µM.

These compounds were tested on MOLT-4 leukemia (assay: NCI anticancer screen, dose series, 48 h).
With `CCOC(=O)C1=C(C)N(Cc2ccccc2)C2(O)C=CC(=O)C3=C(O)c4ccccc4C(=O)C312` (stereo not drawn) the TGI was greater than 100 µM. Work on `COc1cc(-c2cc(=O)c3c(O)c(OC)c(OC)c(OC)c3o2)cc(OC)c1OC` yielded a TGI greater than 100 µM. With `COc1cc(/C=N/NC2=NCCN2)ccc1O` the TGI was greater than 100 µM. For `O=C(NCCCCCN1CCC2(CCCCC2)CC1)C(C1CCCCC1)C1CCCCC1`, the TGI was 4.87 µM. `C/C(=N\NC(N)=S)c1ccc(C2CCCCC2)cc1` showed a TGI of 35.7 µM. Work on `CC[C@@]1(O)C(=O)OCc2c1cc1n(c2=O)Cc2c-1nc1ccccc1c2/C=N\NC(=O)C(N)Cc1c[nH]c2ccccc12` (stereo partly drawn) yielded a TGI of 1.18 µM. In the case of `CCCCCCCCCCCCCCCCOCC(O)CO` (stereo not drawn), the TGI is reported as 29.6 µM.

What follows are compounds tested on SK-MEL-28 melanoma (assay: NCI anticancer screen, dose series, 48 h).
With `CCOC(=O)C1=C(C)N(Cc2ccccc2)C2(O)C=CC(=O)C3=C(O)c4ccccc4C(=O)C312` (stereo not drawn) the TGI was greater than 100 µM. `COc1cc(-c2cc(=O)c3c(O)c(OC)c(OC)c(OC)c3o2)cc(OC)c1OC` showed a TGI greater than 100 µM. Compound `COc1cc(/C=N/NC2=NCCN2)ccc1O` has a TGI greater than 100 µM. Compound `O=C(NCCCCCN1CCC2(CCCCC2)CC1)C(C1CCCCC1)C1CCCCC1` has a TGI of 3.64 µM. `C/C(=N\NC(N)=S)c1ccc(C2CCCCC2)cc1` was tested, and the TGI was 33.7 µM. Work on `CC[C@@]1(O)C(=O)OCc2c1cc1n(c2=O)Cc2c-1nc1ccccc1c2/C=N\NC(=O)C(N)Cc1c[nH]c2ccccc12` (stereo partly drawn) yielded a TGI greater than 100 µM. In the case of `CCCCCCCCCCCCCCCCOCC(O)CO` (stereo not drawn), the TGI is reported as 33.3 µM.

Each compound was assayed on UO-31 renal (assay: NCI anticancer screen, dose series, 48 h).
Work on `CCOC(=O)C1=C(C)N(Cc2ccccc2)C2(O)C=CC(=O)C3=C(O)c4ccccc4C(=O)C312` (stereo not drawn) yielded a TGI of 21.5 µM. `COc1cc(-c2cc(=O)c3c(O)c(OC)c(OC)c(OC)c3o2)cc(OC)c1OC` gave a TGI greater than 100 µM. Work on `COc1cc(/C=N/NC2=NCCN2)ccc1O` yielded a TGI greater than 100 µM. Compound `O=C(NCCCCCN1CCC2(CCCCC2)CC1)C(C1CCCCC1)C1CCCCC1` has a TGI of 8.46 µM. In the case of `C/C(=N\NC(N)=S)c1ccc(C2CCCCC2)cc1`, the TGI is reported as 41.8 µM. `CC[C@@]1(O)C(=O)OCc2c1cc1n(c2=O)Cc2c-1nc1ccccc1c2/C=N\NC(=O)C(N)Cc1c[nH]c2ccccc12` (stereo partly drawn) showed a TGI of 1.48 µM. For `CCCCCCCCCCCCCCCCOCC(O)CO` (stereo not drawn), the TGI was 32.4 µM.

The compounds below were run on HOP-18 NSCLC (assay: NCI anticancer screen, dose series, 48 h).
For `C/C(=N\NC(N)=S)c1ccc(C2CCCCC2)cc1`, the TGI was greater than 100 µM.

Each compound was assayed on SK-OV-3 ovarian (assay: NCI anticancer screen, dose series, 48 h).
`CCOC(=O)C1=C(C)N(Cc2ccccc2)C2(O)C=CC(=O)C3=C(O)c4ccccc4C(=O)C312` (stereo not drawn) gave a TGI greater than 100 µM. `COc1cc(-c2cc(=O)c3c(O)c(OC)c(OC)c(OC)c3o2)cc(OC)c1OC` gave a TGI of 26 µM. In the case of `COc1cc(/C=N/NC2=NCCN2)ccc1O`, the TGI is reported as greater than 100 µM. `O=C(NCCCCCN1CCC2(CCCCC2)CC1)C(C1CCCCC1)C1CCCCC1` showed a TGI of 15.1 µM.
